Reference: the supplement of paper PMC10307832

Experiments:
Assay in all cases: relative viability (nuclei count vs DMSO), 5 days (fraction); higher = more cells survive
[1] = compound: NC(=O)c1ccc(N(C(N)=O)c2c(F)cccc2F)nc1-c1ccc(F)cc1F [VX-702] + CS(=O)(=O)CCNCc1ccc(-c2ccc3ncnc(Nc4ccc(OCc5cccc(F)c5)c(Cl)c4)c3c2)o1 [Lapatinib] (partner 2 µM)
How it was run: (§1)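 For relative viability, nuclei counts in treated wells were divided by those in vehicle wells. Lung cancer cell lines had been pin-tool dosed in 1536-well plates the day after seeding and cultured for 5 days, then fixed and stained in one step (final 0.05% Triton X-100, 1% formaldehyde, 1 ug/ml Hoechst) and imaged at 4×. Doses were one drug alone or a fixed anchor-drug dose plus five library-drug doses (not always all listed) in √10 steps, and values are duplicate-plate medians.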

[2] = compound: CC(C)(C)c1nc(-c2cccc(NS(=O)(=O)c3c(F)cccc3F)c2F)c(-c2ccnc(N)n2)s1 [Dabrafenib] + O=C(CCCCCCC(=O)Nc1ccccc1)NO [Vorinostat] (partner 1 µM)
How it was run: as §1

[3] = compound: CC(C)(C)c1nc(-c2cccc(NS(=O)(=O)c3c(F)cccc3F)c2F)c(-c2ccnc(N)n2)s1 [Dabrafenib] + Nc1ncn([C@H]2C[C@H](O)[C@@H](CO)O2)c(=O)n1 [Decitabine] (partner 2 µM)
How it was run: as §1

[4] = compound: NC(=O)c1ccc(N(C(N)=O)c2c(F)cccc2F)nc1-c1ccc(F)cc1F [VX-702] + Cc1nc(NC(=O)N2CCC[C@H]2C(N)=O)sc1-c1ccnc(C(C)(C)C(F)(F)F)c1 [Alpelisib] (partner 2 µM)
How it was run: as §1

Cell Line	relative viability ([1]; first compound 0.02 µM)	relative viability ([1]; first compound 0.2 µM)	relative viability ([1]; first compound 0.6325 µM)	relative viability ([1]; first compound 2 µM)	relative viability ([2]; first compound 0.009487 µM)	relative viability ([2]; first compound 0.03 µM)	relative viability ([2]; first compound 0.09487 µM)	relative viability ([2]; first compound 0.3 µM)	relative viability ([3]; first compound 0.009487 µM)	relative viability ([3]; first compound 0.03 µM)	relative viability ([3]; first compound 0.09487 µM)	relative viability ([3]; first compound 0.3 µM)	relative viability ([4]; first compound 0.02 µM)	relative viability ([4]; first compound 0.2 µM)	relative viability ([4]; first compound 0.6325 µM)	relative viability ([4]; first compound 2 µM)	relative viability ([2]; first compound 0.003 µM)	relative viability ([3]; first compound 0.003 µM)
LOU-NH91	0.789	0.645	0.639	0.675	0.941	0.964	0.941	1.07	0.868	0.845	0.838	0.861	0.699	0.683	0.702	0.562		
IA-LM	0.789	0.738	0.77	0.761	0.957	0.983	0.829	1.07					0.718	0.725	0.782	0.748		
EBC-1	0.228	0.175	0.188	0.188									0.777	0.835	0.687	0.892		
NCI-H727	0.88	0.671	0.818	0.911	1.27		0.995	1.19	0.8		0.877	0.818	0.504	0.552	0.621	0.634	0.538	0.53
NCI-H1395	0.898	1.16	1.09	1.17	0.699	0.719	0.662	0.667	0.726	0.738	0.696	0.66	1.2	1.11	0.967	1.38		
NCI-H2126	0.752	0.763	0.74	0.824	0.916	0.767	0.888	0.993	0.591	0.57	0.653	0.609	0.708	0.708	0.718	0.698	0.693	0.578
LCLC-97TM1	0.908	0.786	1.3	0.947	0.928	0.695	0.283	0.596	0.19	0.184	0.197	0.194	0.187	0.238	0.205	0.227		
NCI-H460	0.931	0.906	1.14	0.984	0.712	0.662	0.641	0.639	0.486	0.457	0.463	0.129	0.465	0.46	0.448	0.487	0.744	0.588
NCI-H1650	0.808	0.469	0.818	0.907	0.528	0.711	0.608	0.659	0.389	0.395	0.387	0.329					0.547	0.415
NCI-H1993	0.811	0.827	0.827	0.743	1.35	0.735	0.631	1.09	0.719	0.538	0.68	0.618	0.665	0.74	0.628	0.674	0.753	0.564
NCI-H522					1.06	0.864	0.815	0.93	0.675	0.64	0.755	0.666						
HCC-78	0.871	0.456	0.603	0.98	0.507	0.426	0.511	0.616	0.681	0.55	0.625	0.474	0.303	0.33	0.287	0.32		
HCC-44	1.03	1.03	0.982	1.05	1.06	1.28	1.05	1.08	0.851	0.921	0.963	0.872	0.861	0.866	0.588	0.8	1.07	1.04
LXF-289	0.965	0.876	0.912	0.922	0.779	0.759	0.674	0.789	0.353	0.372	0.397	0.351	1.07	1.03	1.01	1.05	0.73	0.353
201T	1.06	0.991	1.12	1.09	1.07	0.813	0.947	0.98	0.825	0.731	0.846	0.769	0.997	1.04	1.03	1.02	0.978	0.853
Calu-6	1.07	1.1	1.13	1.25									0.942	1.07	1	1.2		
LCLC-103H					0.772	0.576	0.765	0.816	0.776	0.696	0.658	0.745	0.964	0.949	0.977	0.9	0.627	0.724
NCI-H2342					0.702	0.664	0.696	0.721	0.723	0.657	0.781	0.774					0.551	0.748
CAL-12T	0.61	0.603	0.611	0.664	0.581	0.804	0.679	0.795					1.22	1.27	1.16	1.24	1.06	
NCI-H1703	1.2	0.931	0.647	1.21									0.304	0.376	0.215	0.334		
NCI-H1792	0.965	0.811	0.97	1.08					0.651	0.557	0.566	0.287	0.668	0.66	0.637	0.479		
NCI-H2228	0.851	1.04	1.04	1.33	0.53	0.656	0.381	0.877					0.826	0.64	0.753	0.856	0.501	
